Emax and EC50 data for eleven compounds are collected here from patent publication US10280165B2, “Pyridopyrimidinones and methods of use thereof” (Genentech, Inc., priority 2015, dated 2019).

The target in the experiment is HEK cells stably transfected with tetracycline inducible hNR1 and hNR2A (Homo sapiens (Human), UniProt Q05586+Q12879). Kind of experiment: Assay 1: Cell-Based Assay (cytosolic calcium, positive allosteric modulation). The conditions noted are these: for Emax: HEK293, scaled relative to 100 μM L-glutamate maximal response (100%) and 0 μM L-glutamate (0%), with 30 μM glycine and 300 nM L-glutamate, read-out: Max %; for EC50: with 30 μM glycine and 300 nM L-glutamate (EC30), given for compounds reaching maximal response plateaus. On the procedure: Assay 1: Cell-Based Assay
HEK cells stably transfected with tetracycline inducible hNR1 and hNR2A were seeded into clear bottom 384 well poly-D-lysine coated plates (2.5×10^4 cells per well) in Minimum Essential Media (MEM; without L-) including 7.5 μg mL doxycycline and 500 μM (+)-ketamine. The cells were incubated at 37° C. in 5% CO2 for 24 h. For measurement of changes in cytosolic calcium, the seeding media was removed and the cells incubated at 37° C. for 60 min with 1× Becton Dickinson Calcium Assay Kit reagent in Hanks Balanced Salt Solution (HBSS; w/o magnesium, including 1.8 mM calcium, 0.65 mg ml^−1 probenecid and 10 μM (+)-ketamine, pH 7.15) then allowed to equilibrate to rt for 30 min. Concentration-effect curves to Positive Allosteric Modulators (PAMs) were constructed by adding different concentrations (with 30 μM glycine and 300 nM L-glutamate (EC30)) to different wells in HBSS. Compounds were added after a 10 second baseline read and maximum level of relative fluorescence units (RFU) was measured over a 5 min period. Responses were scaled relative to 100 μM L-glutamate maximal response (100%) and 0 μM L-glutamate (0%). EC50 values are provided for compounds reaching maximal response plateaus, and the max % (EC50 (--)) only if no plateau was reached.
A four-parameter Hill equation was fitted to individual concentration-effect curves:
[formula] in which Y, S0, Sinf, AC50, n and c were effect, lower-asymptote, upper-asymptote, mid-point location, slope parameter, and concentration respectively.

As usually defined, the EC50 is the midpoint of the concentration-response curve.

Sequence of HEK cells stably transfected with tetracycline inducible hNR1 and hNR2A (Q12879 23-1464, other chains not shown): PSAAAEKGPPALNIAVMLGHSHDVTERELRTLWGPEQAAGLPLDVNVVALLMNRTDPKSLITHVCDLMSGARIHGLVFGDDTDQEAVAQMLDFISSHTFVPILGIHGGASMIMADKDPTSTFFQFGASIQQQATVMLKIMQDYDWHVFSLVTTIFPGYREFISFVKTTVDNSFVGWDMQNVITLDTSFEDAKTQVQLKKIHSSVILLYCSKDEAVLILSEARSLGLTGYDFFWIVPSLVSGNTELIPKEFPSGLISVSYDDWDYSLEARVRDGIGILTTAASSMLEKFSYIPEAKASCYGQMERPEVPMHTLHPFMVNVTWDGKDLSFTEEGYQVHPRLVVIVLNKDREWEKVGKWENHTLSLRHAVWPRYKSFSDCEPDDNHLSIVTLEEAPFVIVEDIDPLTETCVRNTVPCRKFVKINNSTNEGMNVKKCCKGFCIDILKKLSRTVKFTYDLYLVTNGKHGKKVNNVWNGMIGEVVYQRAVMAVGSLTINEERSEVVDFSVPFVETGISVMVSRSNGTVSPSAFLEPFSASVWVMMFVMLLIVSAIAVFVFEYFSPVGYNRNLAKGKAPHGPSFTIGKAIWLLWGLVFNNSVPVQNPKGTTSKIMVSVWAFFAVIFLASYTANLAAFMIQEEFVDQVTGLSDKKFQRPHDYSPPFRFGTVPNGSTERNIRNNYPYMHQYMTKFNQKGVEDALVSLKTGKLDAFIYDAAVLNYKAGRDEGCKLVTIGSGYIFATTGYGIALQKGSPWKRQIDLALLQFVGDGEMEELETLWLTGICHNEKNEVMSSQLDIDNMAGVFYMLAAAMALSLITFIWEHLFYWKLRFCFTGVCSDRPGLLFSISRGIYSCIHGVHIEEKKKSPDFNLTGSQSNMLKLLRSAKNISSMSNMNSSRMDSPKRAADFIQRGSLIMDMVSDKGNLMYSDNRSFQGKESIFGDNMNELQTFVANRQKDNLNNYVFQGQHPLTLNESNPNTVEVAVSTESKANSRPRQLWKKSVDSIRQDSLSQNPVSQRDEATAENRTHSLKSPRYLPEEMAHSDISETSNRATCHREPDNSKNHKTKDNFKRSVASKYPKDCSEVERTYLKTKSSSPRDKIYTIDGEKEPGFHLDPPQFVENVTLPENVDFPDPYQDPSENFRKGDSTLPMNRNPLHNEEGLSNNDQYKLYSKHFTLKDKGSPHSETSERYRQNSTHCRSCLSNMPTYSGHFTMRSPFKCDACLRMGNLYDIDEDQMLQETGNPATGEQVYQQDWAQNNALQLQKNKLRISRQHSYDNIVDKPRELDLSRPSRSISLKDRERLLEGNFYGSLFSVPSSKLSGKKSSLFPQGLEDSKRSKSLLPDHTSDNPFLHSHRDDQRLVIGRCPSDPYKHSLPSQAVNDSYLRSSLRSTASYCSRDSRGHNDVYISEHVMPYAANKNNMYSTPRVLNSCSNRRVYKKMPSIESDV

Consider `Cc1ccc2nc(Cn3nc(C(F)(F)F)cc3Cl)cc(=O)n2c1[C@H]1C[C@@H]1C#N` [Compound 34, (1S,2S)-2-[2-[[5-chloro-3-(trifluoromethyl)pyrazol-1-yl]methyl]-7-methyl-4-oxo-pyrido[1,2-a]pyrimidin-6-yl]cyclopropanecarbonitrile], for which the Emax is 99% and the EC50 was found to be 25500 nM.

Consider `Cc1ccc2nc(Cn3nc(C(F)(F)F)cc3Cl)cc(=O)n2c1[C@@H]1C[C@H]1C#N` [Compound 35, (1R,2R)-2-[2-[[5-chloro-3-(trifluoromethyl)pyrazol-1-yl]methyl]-7-methyl-4-oxo-pyrido[1,2-a]pyrimidin-6-yl]cyclopropanecarbonitrile], for which the Emax was found to be 132% and the EC50 was found to be 77 nM. Turning to `Cc1ccc2nc(Cn3nc(C(F)(F)F)cc3Cl)cc(=O)n2c1[C@@H]1C[C@H]1CO` [Compound 36, 2-[[5-chloro-3-(trifluoromethyl)pyrazol-1-yl]methyl]-6-[(1R,2R)-2-(hydroxymethyl)cyclopropyl]-7-methyl-pyrido[1,2-a]pyrimidin-4-one], the Emax came to 135% and the EC50 worked out at 126 nM. In the case of `Cc1ccc2nc(Cn3nc(C(F)(F)F)cc3Cl)cc(=O)n2c1[C@H]1C[C@@H]1CO` [Compound 37, 2-[[5-chloro-3-(trifluoromethyl)pyrazol-1-yl]methyl]-6-[(1S,2S)-2-(hydroxymethyl)cyclopropyl]-7-methyl-pyrido[1,2-a]pyrimidin-4-one], the Emax was determined as 127%. For the compound `Cc1cc([C@@H]2C[C@H]2C#N)n2c(=O)cc(Cn3nc(C(F)(F)F)cc3Cl)nc2c1` [Compound 38, (1R,2R)-2-(2-[[5-chloro-3-(trifluoromethyl)pyrazol-1-yl]methyl]-8-methyl-4-oxo-pyrido[1,2-a]pyrimidin-6-yl]cyclopropanecarbonitrile], the Emax was determined as 144% and the EC50 was 39 nM. The corresponding values for `Cc1cc([C@H]2C[C@@H]2C#N)n2c(=O)cc(Cn3nc(C(F)(F)F)cc3Cl)nc2c1` [Compound 39, (1S,2S)-2-[2-[[5-chloro-3-(trifluoromethyl)pyrazol-1-yl]methyl]-8-methyl-4-oxo-pyrido[1,2-a]pyrimidin-6-yl]cyclopropanecarbonitrile] are 120% and 951 nM.

With `N#C[C@@H]1C[C@H]1c1cccc2nc(Cn3nc(C(F)(F)F)cc3Cl)cc(=O)n12` [Compound 40, (1R,2R)-2-[2-[[5-chloro-3-(trifluoromethyl)pyrazol-1-yl]methyl]-4-oxo-pyrido[1,2-a]pyrimidin-6-yl]cyclopropanecarbonitrile], the Emax turned out to be 148%. With `N#C[C@H]1C[C@@H]1c1cccc2nc(Cn3nc(C(F)(F)F)cc3Cl)cc(=O)n12` [Compound 41, (1S,2S)-2-[2-[[5-chloro-3-(trifluoromethyl)pyrazol-1-yl]methyl]-4-oxo-pyrido[1,2-a]pyrimidin-6-yl]cyclopropanecarbonitrile], the Emax worked out at 111% and the EC50 came out at 2900 nM. For `N#C[C@H]1C[C@@H]1c1c(Cl)ccc2nc(Cn3nc(C(F)(F)F)cc3Cl)cc(=O)n12` [Compound 42, (1S,2S)-2-[7-chloro-2-[[5-chloro-3-(trifluoromethyl)pyrazol-1-yl]methyl]-4-oxo-pyrido[1,2-a]pyrimidin-6-yl]cyclopropanecarbonitrile], the Emax was 110% and the EC50 was found to be 10600 nM. In the case of `Cc1cc(C2CC2C#N)n2c(=O)cc(Cn3nc(Cl)cc3C(F)(F)F)nc2c1` (centres unmarked) [Compound 43, 2-[2-[[3-chloro-5-(trifluoromethyl)pyrazol-1-yl]methyl]-8-methyl-4-oxo-pyrido[1,2-a]pyrimidin-6-yl]cyclopropanecarbonitrile], the Emax was 145% and the EC50 came to 269 nM. As for `Cc1ccc2nc(Cn3nc(Cl)cc3C(F)(F)F)cc(=O)n2c1C1CC1C#N` (centres unmarked) [Compound 44, 2-[2-[[3-chloro-5-(trifluoromethyl)pyrazol-1-yl]methyl]-7-methyl-4-oxo-pyrido[1,2-a]pyrimidin-6-yl]cyclopropanecarbonitrile], the Emax worked out at 158% and the EC50 was 227 nM.
